# Results reported in patent US20130324404A1, “1, 8 -DIAZASPIRO [4.5] DECANE- 2, 4 -DIONE DERIVATIVES USEFUL AS PESTICIDES” (SYNGENTA PARTICIPATIONS AG, priority 2010, published 2013).
# How the values were obtained:
# [1] = system: Myzus persicae (green peach aphid); assay: Example B2: Activity against Myzus persicae, mixed population, systemic/feeding activity, curative (pea seedlings); format: in vivo; conditions: 144 h, roots of infested pea seedlings in test solution, 6 days, systemic
# Source text: (§1) Activity Against Myzus persicae (Green Peach Aphid)
# (Mixed Population, Systemic/Feeding Activity, Curative)
# Roots of pea seedlings, infested with an aphid population of mixed ages, are placed directly in the test solutions. 6 days after introduction, samples are checked for mortality and special effects on the plant.
# [2] = system: Myzus persicae (green peach aphid); assay: Example B1: Activity against Myzus persicae, mixed population, feeding/residual contact activity, preventive (sunflower leaf discs); format: in vivo; conditions: foliar, 144 h, sprayed sunflower leaf discs, 6 days incubation
# Procedure: as §1
# (§2) (Mixed Population, Feeding/Residual Contact Activity, Preventive)
# Sunflower leaf discs are placed on agar in a 24-well microtiter plate and sprayed with test solutions. After drying, the leaf discs are infested with an aphid population of mixed ages. After an incubation period of 6 days, samples are checked for mortality and special effects (e.g. phytotoxicity).
# cabbage plants = conditions: in vivo, 6 days, 200 ppm
# Procedure: as §1
# (§3) (Mixed Population, Feeding/Residual Contact Activity, Plant Damage Evaluation)
# (§4) Cabbage plants infested with a mixed population of Myzus persicae are treated with diluted test solutions of the compounds in a spray chamber. 6 days after treatment, samples are checked for mortality and for plant damage (phytotoxicity), visual assessment being made using a 0-100% rating scale (100%=total damage to plant; 0%=no damage to plant). In this test, compounds listed in the tables above show good activity against Myzus persicae and acceptable plant compatibility. For example compounds P1.1, P1.2, P1.3, P1.4, P1.6, P1.7, P1.8, P1.9, P1.10, P1.11 and P1.12 show an activity of greater or equal to 80% against Myzus persicae and damage to cabbage plants less or equal to 10% at a concentration of 200 ppm.
# [3] = system: Myzus persicae (green peach aphid); assay: Example B5: Activity against Myzus persicae, mixed population, feeding/residual contact activity (infested cabbage plants, spray chamber); format: in vivo; conditions: 144 h, infested cabbage plants sprayed, 6 days after treatment
# Procedure: as §1, §3, §4
# [4] = system: Thrips tabaci (onion thrips); assay: Example B3: Activity against Thrips tabaci, mixed population, feeding/residual contact activity, preventive (sunflower leaf discs); format: in vivo; conditions: foliar, 144 h, sprayed sunflower leaf discs, 6 days incubation
# Procedure: Activity Against Thrips tabaci (Onion Thrips)
# as §2
# Sunflower leaf discs are placed on agar in a 24-well microtiter plate and sprayed with test solutions. After drying, the leaf discs are infested with a thrips population of mixed ages. After an incubation period of 6 days, samples are checked for mortality and special effects (e.g. phytotoxicity).
# [5] = system: Tetranychus urticae (two-spotted spider mite); assay: whole plant or invertebrate; format: in vivo; conditions: foliar, 192 h, read-out: activity (egg, larval and adult mortality) against Tetranychus urticae
# Source text: Activity Against Tetranychus urticae (Two-Spotted Spider Mite)
# as §2
# Bean leaf discs on agar in 24-well microtiter plates are sprayed with test solutions. After drying, the leaf discs are infested with mite populations of mixed ages. 8 days later, discs are checked for egg mortality, larval mortality, and adult mortality.
melting point,Compound,"damage to cabbage plants (phytotoxicity), 0-100% rating scale (cabbage plants)",mortality at 200 ppm [3],further results
–,"COCON1C(=O)C(Cl)(c2cc(C)ccc2C)C(=O)C12CCN(OC)CC2 (centres unmarked) [Compound P1.1, 3-Chloro-3-(2,5-dimethyl-phenyl)-8-methoxy-1-methoxymethoxy-1,8-diaza-spiro[4.5]decane-2,4-dione]",≤ 10%,≥ 80%,mortality at 400 ppm [1]: > 80%; mortality at 400 ppm [2]: > 80%
–,COCCON1C(=O)C(Cl)(c2c(C)cc(C)cc2C)C(=O)C12CCN(OC)CC2 (centres unmarked) [Compound P1.2],≤ 10%,≥ 80%,mortality at 400 ppm [1]: > 80%; mortality at 400 ppm [2]: > 80%
–,CCON1C(=O)C(Cl)(c2c(C)cc(C)cc2C)C(=O)C12CCN(OC)CC2 (centres unmarked) [Compound P1.3],≤ 10%,≥ 80%,mortality at 400 ppm [1]: > 80%; mortality at 400 ppm [2]: > 80%; mortality at 400 ppm [4]: > 80%
–,CON1CCC2(CC1)C(=O)C(Cl)(c1c(C)cc(C)cc1C)C(=O)N2OCC1CCCC1 (centres unmarked) [Compound P1.4],≤ 10%,≥ 80%,–
–,CON1CCC2(CC1)C(=O)C(Cl)(c1c(C)cc(C)cc1C)C(=O)N2OC1CCCCC1 (centres unmarked) [Compound P1.6],≤ 10%,≥ 80%,–
–,"COCCON1C(=O)C(Cl)(c2cc(C)c(C)cc2Cl)C(=O)C12CCN(OC)CC2 (centres unmarked) [Compound P1.7, 3-Chloro-3-(2-chloro-4,5-dimethyl-phenyl)-8-methoxy-1-(2-methoxy-ethoxy)-1,8-diaza-spiro[4.5]decane-2,4-dione]",≤ 10%,≥ 80%,mortality at 400 ppm [1]: > 80%; mortality at 400 ppm [2]: > 80%
–,"CON1CCC2(CC1)C(=O)C(c1c(C)ccc(Cl)c1C)([N+](=O)[O-])C(=O)N2OC (centres unmarked) [Compound P1.8, 3-(3-Chloro-2,6-dimethyl-phenyl)-1,8-dimethoxy-3-nitro-1,8-diaza-spiro[4.5]decane-2,4-dione]",≤ 10%,≥ 80%,–
–,CON1CCC2(CC1)C(=O)C(Cl)(c1c(C)cc(C)cc1C)C(=O)N2OCC1CCOC1 (centres unmarked) [Compound P1.9],≤ 10%,≥ 80%,mortality at 400 ppm [1]: > 80%; mortality at 400 ppm [2]: > 80%
–,CON1CCC2(CC1)C(=O)C(Cl)(c1c(C)cc(C)cc1C)C(=O)N2OCC1CCOCC1 (centres unmarked) [Compound P1.10],≤ 10%,≥ 80%,mortality at 400 ppm [1]: > 80%; mortality at 400 ppm [2]: > 80%
–,CON1CCC2(CC1)C(=O)C(Cl)(c1c(C)cc(C)cc1C)C(=O)N2OC1CCOC1 (centres unmarked) [Compound P1.11],≤ 10%,≥ 80%,mortality at 400 ppm [1]: > 80%
–,CON1CCC2(CC1)C(=O)C(Cl)(c1cc(Br)c(C)cc1C)C(=O)N2OC (centres unmarked) [Compound P1.12],≤ 10%,≥ 80%,–
–,COCCON1C(=O)C(Cl)(c2cc(-c3ccc(Cl)cc3)c(F)cc2C)C(=O)C12CCN(OC)CC2 (centres unmarked) [Compound P1.13],–,–,mortality at 400 ppm [5]: > 80%
128 °C (dec.),"COCON1C(=O)C(c2c(C)cc(-c3ccc(Cl)cc3)cc2C)=C(O)C12CCN(OC)CC2 [Compound P2.15, 3-(4′-Chloro-3,5-dimethyl-biphenyl-4-yl)-4-hydroxy-8-methoxy-1-methoxymethoxy-1,8-diaza-spiro[4.5]dec-3-en-2-one]",–,–,–
135 to 137 °C,CON1CCC2(CC1)C(O)=C(c1c(C)cc(C)cc1C)C(=O)N2OCCOC1CCCCO1 (centres unmarked) [Compound P2.22],–,–,–
155 to 158 °C,COCON1C(=O)C(c2c(F)ccc(C)c2Cl)=C(O)C12CCN(OC)CC2 [Compound P2.60],–,–,–
63 to 64 °C,COCCON1C(=O)C(c2cc(Br)c(C)cc2C)=C(O)C12CCN(OC)CC2 [Compound P2.73],–,–,–
86 to 87 °C,CON1CCC2(CC1)C(O)=C(c1cc(Br)c(C)cc1C)C(=O)N2OC [Compound P2.75],–,–,–
71 to 74 °C,COCCON1C(=O)C(c2cc(Br)c(F)cc2C)=C(O)C12CCN(OC)CC2 [Compound P2.87],–,–,–
64 to 67 °C,COCON1C(=O)C(c2cc(Br)c(F)cc2C)=C(O)C12CCN(OC)CC2 [Compound P2.89],–,–,–
169 to 172 °C,CON1CCC2(CC1)C(O)=C(c1c(C)cc(C)cc1C)C(=O)N2OCC1CCCCC1 [Compound P2.96],–,–,–
161 to 164 °C,COCCON1C(=O)C(c2c(C)cc(Cl)cc2C)=C(O)C12CCN(OC)CC2 [Compound P2.101],–,–,–
88 to 92 °C,CON1CCC2(CC1)C(O)=C(c1c(C)cc(Cl)cc1C)C(=O)N2OC [Compound P2.102],–,–,–
228 to 231 °C,"CON1CCC2(CC1)C(O)=C(c1c(C)cc(Cl)cc1C)C(=O)N2O [Compound P2.103, 3-(4-Chloro-2,6-dimethyl-phenyl)-1,4-dihydroxy-8-methoxy-1,8-diaza-spiro[4.5]dec-3-en-2-one]",–,–,–
176 to 178 °C,COCON1C(=O)C(c2c(C)cc(Cl)cc2C)=C(O)C12CCN(OC)CC2 [Compound P2.104],–,–,–
137 to 139 °C,CON1CCC2(CC1)C(O)=C(c1c(C)cc(Cl)cc1C)C(=O)N2OC1CCCO1 (centres unmarked) [Compound P2.105],–,–,–
